The values below come from patent US9901573B2, “Compositions, methods, and kits for regulating energy metabolism” (NuSirt Sciences, Inc., priority 2012, dated 2018).

Common to all, as to format: cell-based
The subject of experiment [1] is 3T3-L1 adipocytes. The experiment can be described thus: Fatty acid oxidation (O2 consumption response to palmitate) in adipocytes. Conditions: FIG. 8, % change from control. As for the experimental part: (§1) Cell Culture: C2C12 and 3T3-L1 preadipocytes (American Type Culture Collection) were plated at a density of 8000 cells/cm^2 (10 cm^2 dish) and grown in Dulbecco's modified eagle's medium (DMEM) containing 10% fetal bovine serum (FBS), and antibiotics (growth medium) at 37° C. in 5% CO2. Confluent 3T3-L1 preadipocytes were induced to differentiate with a standard differentiation medium consisting of DMEM medium supplemented with 10% FBS, 250 nM dexamethasone, 0.5 mM 3-Isobutyl-1-methylxanthine (IBMX) and 1% penicillin-streptomycin. Preadipocytes were maintained in this differentiation medium for 3 days and subsequently cultured in growth medium. Cultures were re-fed every 2-3 days to allow >90% cells to reach fully differentiation before conducting chemical treatment. […]
Fatty acid oxidation: Cellular oxygen consumption was measured using a Seahorse Bioscience XF24 analyzer (Seahorse Bioscience, Billerica, Mass.) in 24-well plates at 37° C., as described by Feige et al (1) with slight modifications. […] Data for each sample were normalized to the pre-palmitate injection baseline for that sample and expressed as % change from that baseline. […] The area under of the curve of O2 consumption change from baseline for each sample was then calculated and used for subsequent analysis.

Experiment [2] relates to 3T3-L1 adipocytes. Nature of the experiment: Glucose utilization (extracellular acidification) in adipocytes. Conditions: FIG. 10. As for the experimental part:
as §1
Glucose Utilization: In the absence of a fatty acid source and oxidative metabolism, glycolysis and subsequent lactate production results in extracellular acidification, which was also measured using a Seahorse Bioscience XF24 analyzer. […] Data for each sample were normalized to the pre-glucose injection baseline for that sample and expressed as % change from that baseline. The area under of the curve of extracellular acidification change from baseline for each sample was the calculated and used for subsequent analysis.

In experiment [3] the test system is C2C12 myotubes. The experiment can be described thus: Fatty acid oxidation (O2 consumption response to palmitate) in myotubes. Conditions: FIG. 4/5, 24 hours, leucine, valine, isoleucine 0.5 mM, B6 100 nM as pyridoxal phosphate, vs control. As for the experimental part: Cell Culture: C2C12 and 3T3-L1 preadipocytes (American Type Culture Collection) were plated at a density of 8000 cells/cm^2 (10 cm^2 dish) and grown in Dulbecco's modified eagle's medium (DMEM) containing 10% fetal bovine serum (FBS), and antibiotics (growth medium) at 37° C. in 5% CO2. Confluent 3T3-L1 preadipocytes were induced to differentiate with a standard differentiation medium consisting of DMEM medium supplemented with 10% FBS, 250 nM dexamethasone, 0.5 mM 3-Isobutyl-1-methylxanthine (IBMX) and 1% penicillin-streptomycin. Preadipocytes were maintained in this differentiation medium for 3 days and subsequently cultured in growth medium. Cultures were re-fed every 2-3 days to allow >90% cells to reach fully differentiation before conducting chemical treatment. For differentiation of C2C12 cells, cells were grown to 100% confluence, transferred to differentiation medium (DMEM with 2% horse serum and 1% penicillin-streptomycin), and fed with fresh differentiation medium every day until myotubes were fully formed (3 days). Fatty acid oxidation: Cellular oxygen consumption was measured using a Seahorse Bioscience XF24 analyzer (Seahorse Bioscience, Billerica, Mass.) in 24-well plates at 37° C., as described by Feige et al (1) with slight modifications. Cells were seeded at 40,000 cells per well, differentiated as described above, treated for 24 hours with the indicated treatments, washed twice with non-buffered carbonate-free pH 7.4 low glucose (2.5 mM) DMEM containing carnitine (0.5 mM), equilibrated with 550 μL of the same media in a non-CO2 incubator for 45 minutes, and then inserted into the instrument for 15 minutes of further equilibration, followed by O2 consumption measurement. Three successive baseline measurements at five-minute intervals were taken prior to injection of palmitate (200 μM final concentration). Four successive 5-minute measurements of O2 consumption were then conducted, followed by 10 minute re-equilibration and another 3-4 5-minute measurements. This measurement pattern was then repeated over a 4-6 hour period. Data for each sample were normalized to the pre-palmitate injection baseline for that sample and expressed as % change from that baseline. […] The area under of the curve of O2 consumption change from baseline for each sample was then calculated and used for subsequent analysis.

For `CC(C)C[C@H](N)C(=O)O` [Leucine, leucine], the entries for the “increase in fatty acid oxidation” value in experiment [1] and in experiment [3] were 181% and 73%, respectively. The “increase in glucose utilization” value in experiment [2] is on record as “no independent significant effect”.
